# According to patent publication US20100215759A1 (priority 2009, published 2010):
# Where two headings read alike, the source gives them in different places.
# Legend:
# CB1 receptors = target: T1, CB1 receptors (Mus musculus, UniProt P47746); experiment: biochemical; type: binding
# T1 construct: the complete brain (excluding the cerebellum) and the spleen were quickly dissected and kept in ice; from tissue; host or cells: mouse brain (excluding cerebellum), membrane preparation
# Procedure: (§1) The affinity of the synthesized compounds towards the CB1 and CB2 cannabinoidergic receptors was evaluated in vitro by radioreceptor binding studies using the method reported hereinunder.
# (§2) The technique of the receptor binding allows to establish if, and with which affinity and specificity, a specific compound binds to a particular receptor. To evaluate the affinity of a specific compound to a particular receptor it is necessary to challenge in a particular tissue preparation wherein those specific receptors are present the compound to be tested with a radioactive labelled compound whose affinity for the same receptors is known. […] The amount of radioactivity present in the receptor-compound complex allows furthermore to estimate with great accuracy the amount of compound bound to the receptor. By said method it is therefore possible to establish quickly the affinity of a new compound towards a specific receptor and thus to determine its pharmacological activity. With the same experimental protocol it is possible to evaluate the affinity of the compound towards other receptors and thus establish its specificity degree toward said other receptors.
# (§3) The food and water were ad libitum.
# (§4) The procedure adopted, based on the use of the compound [^3H]-CP-55,940 (New England Nuclear, Boston, Mass., USA), requires the use of the mouse brain as biological tissue for the evaluation of the affinity towards the CB1 receptors and of the mouse spleen for the affinity assay for the CB2 receptors.
# (§5) The animals were sacrificed by cervical dislocation and the complete brain (excluding the cerebellum) and the spleen were quickly dissected and kept in ice.
# (§6) The tissue was homogenized in 15 volumes (weight/volume) of TME buffer (50 Mm Tris, 1 mM EDTA and 3 mM MgCl2, pH 7.4) by an Ultra-Turrax and subsequently centrifuged for 10 minutes at 1086×g in a centrifuge refrigerated at 4° C. The recovered supernatant was centrifuged at 45,000×g for 30 minutes at 4° C. by using a Beckman SW41 rotor and the obtained pellet was resuspended in 50 volumes of TME.
# (§7) The thus obtained membranes (50-80 μg of proteins) were incubated in the presence of 1 nM of [^3H]-CP55.940 for 1 hour at 30° C. in a final volume of 0.5 ml of TME buffer containing 5 mg/ml of bovine serum albumin (BSA). The non specific binding was measured in the presence of CP55.940 at a 1 μM concentration.
# (§8) All the experiments were carried out in polypropylene test tubes pretreated with Sigma-Cote (Sigma Chemical Co. Ltd., Poole, UK) for reducing non specific binding.
# (§9) In order to determine the competitive inhibition binding curves, eight different concentrations of each compound were used.
# (§10) Incubation was stopped by addition of TME buffer (at 4° C.) containing 5 mg/ml of BSA, and subsequent filtration under vacuum by Whatman GFC filters pretreated with 0.5% of polyethylamine (PEI) and by using a filtering device (Brandell, Gaithersburg, Md., USA). The filters were washed 3 times with […] of Tris HCl buffer (pH 7.4, 4° C.) containing 1 mg/ml of BSA and separately placed in plastic vials containing 4 ml of scintillating liquid (Ultima Gold MV, Packard).
# (§11) The radioactivity present in the filters was determined by a scintillator spectrophotometer (Tricarb® 2100, Packard, Meridien, USA).
# (§12) Protein determination was carried out by the Bradford method by using the protocol and the reactants supplied by Bio-Rad (Milano, Italy).
# CB2 receptors = target: T2, CB2 receptors (Mus musculus, UniProt P47936); experiment: biochemical; type: binding
# T2 construct: the complete brain (excluding the cerebellum) and the spleen were quickly dissected and kept in ice; from tissue; host or cells: mouse spleen, membrane preparation
# Procedure: as §1, §2, §3, §4, §5, §6, §7, §8, §9, §10, §11, §12
# mice = experiment: Hypothermia test in vivo (rectal temperature after i.p. administration); details: for Body Temperature: 40 mg/kg i.p.
# Text: It is known that the compounds having a cannabomimetic activity show in vivo the following effects: hypoactivity, hypothermia, analgesia and catalepsy (B. R. Martin et al., Pharmacol. Biochem. Behav.; 1991, 40, 471-478; P. B. Smith et al.; J. Pharmacol. Exp. Ther.; 1994, 270, 219-227). In order to display thermoregulating activity, the compounds acting towards the cannabinoidergic receptors must be able to pass the haematoencephalic barrier since the central site of said temperature regulating receptors is positioned in the preoptical front core of the hypothalamus (S. M. Rawls et al.; J. Pharmacol. Exp. Ther.; 2002, 303, 395-402). After treatment with CB1 agonist compounds passing the haemato-encephalic barrier, the cannabimimetic activity is evidenced by a reduction of the body temperature. CB1 antagonist compounds that pass the haemato-encephalic barrier, have no influence on the body temperature and show an antagonist activity towards the reference CB1 agonists as WIN 55.212-2, thus hindering the hypothermia induced by the latter.
# The tests have been carried out in the experimental animal (mice) according to the indications of M. Rinaldi-Carmona et al. in FEBS Letters; 1994, 350, 240-244. Rectal temperature in mice was determined by an electronic thermometer inserted at a 2 mm depth. The measurements were carried out on mice acclimatized for one hour. […]
# The experiment was carried out with the compound of example 3.1. Said compound was dispersed in a carrier formed of a physiological solution added with Tween 80 (3 drops). The so prepared samples were used for treating the animals at a dose of the compound of 40 mg/kg of body weight. The blank was the carrier.
# Each test was repeated on ten animals: the results obtained are therefore the average of the determinations made on ten animals.
# [1] = mouse brain membranes, 1 nM [3H]-CP55.940, read-out: CB1 (brain) Ki
# [2] = mouse spleen membranes, 1 nM [3H]-CP55.940, read-out: CB2 (spleen) Ki
# T2 sequence (P47936 whole entry): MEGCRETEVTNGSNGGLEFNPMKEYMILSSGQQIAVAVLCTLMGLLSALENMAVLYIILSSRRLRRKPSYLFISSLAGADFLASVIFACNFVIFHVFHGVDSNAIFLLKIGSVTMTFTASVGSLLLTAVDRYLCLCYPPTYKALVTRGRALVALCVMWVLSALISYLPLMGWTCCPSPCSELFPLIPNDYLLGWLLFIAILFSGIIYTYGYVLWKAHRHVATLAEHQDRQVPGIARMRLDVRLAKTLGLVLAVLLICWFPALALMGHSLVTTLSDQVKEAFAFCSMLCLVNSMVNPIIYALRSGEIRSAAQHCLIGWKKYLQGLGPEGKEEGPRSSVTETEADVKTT
# T1 sequence (P47746 whole entry): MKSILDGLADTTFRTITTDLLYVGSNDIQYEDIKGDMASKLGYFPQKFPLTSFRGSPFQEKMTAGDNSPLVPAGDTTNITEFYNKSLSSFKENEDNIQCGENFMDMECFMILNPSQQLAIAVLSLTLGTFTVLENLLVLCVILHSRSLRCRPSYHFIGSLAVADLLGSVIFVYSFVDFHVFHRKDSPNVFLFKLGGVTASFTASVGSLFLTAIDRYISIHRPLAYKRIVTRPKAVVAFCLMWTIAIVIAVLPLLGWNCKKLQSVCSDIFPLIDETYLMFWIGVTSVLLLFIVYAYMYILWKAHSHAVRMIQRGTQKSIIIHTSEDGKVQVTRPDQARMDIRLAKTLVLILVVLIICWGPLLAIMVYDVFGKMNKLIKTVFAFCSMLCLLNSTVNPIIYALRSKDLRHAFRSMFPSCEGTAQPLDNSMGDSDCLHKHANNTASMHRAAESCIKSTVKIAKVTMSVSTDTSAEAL
Compound,Ki (CB1 receptors; [1]),Ki (CB2 receptors; [2]),Ki (CB1 receptors),Ki (CB2 receptors),Reduction of body temperature versus the carrier (mice; 40 mg/Kg),Body Temperature (mice; 0 minutes from administration),Body Temperature (mice; 15 minutes from administration),Body Temperature (mice; 30 minutes from administration),Body Temperature (mice; 60 minutes from administration),Body Temperature (mice; 90 minutes from administration),Body Temperature (mice; 120 minutes from administration)
"CCOC(=O)c1nn(-c2ccc(S(N)(=O)=O)cc2)c2c1CCc1sccc1-2 [Compound (XA), 1-(4′-sulphonamidophenyl)-4,5-dihydro-1H-thieno[2,3-g]indazol-3-ethyl carboxylate]",> 5000 nM,> 5000 nM,–,–,–,–,–,–,–,–,–
"NC(=O)c1nn(-c2ccc(S(N)(=O)=O)cc2)c2c1CCc1sccc1-2 [Compound (XB), 1-(4′-sulphonamidophenyl)-4,5-dihydro-1H-thieno[2,3-g]indazol-3-carboxamide]",> 5000 nM,> 5000 nM,–,–,–,–,–,–,–,–,–
"Cc1ccc(Cn2nc(C(=O)NCC3CCC4CC3C4(C)C)c3c2-c2sc(C)cc2C3)cc1 (stereo not shown) [Example 3.1, N-myrtanyl-6-methyl-1-(4′-methylbenzyl)-1,4-dihydrothieno[3′,2′:4,5]cyclopenta[1,2-c]pyrazol-3-carboxamide]",–,–,83.6 ± 14.6 nM,48.3 ± 2.6 nM,significantly reduce the body temperature,37.9 °C,36.1 °C,34.8 °C,35.0 °C,36.7 °C,37.2 °C
